Data as given in patent publication US20060009445A1, “Tumor-inhibiting anellated azepinone derivatives” (Faustus Forschungs CIE. Translational Cancer Research GmbH, priority 2002, published 2006).

Experiments:
Assay type in all cases: cell-based
CCRF-CEM = test: XTT assay, tumor-inhibiting effect in vitro, CCRF-CEM; conditions: Homo sapiens, incubation period 48 hours
Procedure: (§1) The tumor-inhibiting effect was tested in vitro in the XTT assay with an example of various cell lines. The incubation period was 48 hours (IC50 values in μM).

K-562 = test: XTT assay, tumor-inhibiting effect in vitro, K-562; conditions: Homo sapiens, K562, incubation period 48 hours
Procedure: as §1

MOLT-4 = test: XTT assay, tumor-inhibiting effect in vitro, MOLT-4; conditions: Homo sapiens, incubation period 48 hours
Procedure: as §1

COLO 205 = test: XTT assay, tumor-inhibiting effect in vitro, COLO 205; conditions: Homo sapiens, incubation period 48 hours
Procedure: as §1

HCT-15 = test: XTT assay, tumor-inhibiting effect in vitro, HCT-15; conditions: Homo sapiens, incubation period 48 hours
Procedure: as §1

HCT-116 = test: XTT assay, tumor-inhibiting effect in vitro, HCT-116; conditions: Homo sapiens, incubation period 48 hours
Procedure: as §1

HT-29 = test: XTT assay, tumor-inhibiting effect in vitro, HT-29; conditions: Homo sapiens, incubation period 48 hours
Procedure: as §1

SW-620 = test: XTT assay, tumor-inhibiting effect in vitro, SW-620; conditions: Homo sapiens, incubation period 48 hours
Procedure: as §1

MCF-7 = test: XTT assay, tumor-inhibiting effect in vitro, MCF-7; conditions: Homo sapiens, MCF7, incubation period 48 hours
Procedure: as §1

OVCAR 3 = test: XTT assay, tumor-inhibiting effect in vitro, OVCAR 3; conditions: Homo sapiens, incubation period 48 hours
Procedure: as §1

NCI-H460 = test: XTT assay, tumor-inhibiting effect in vitro, NCI-H460; conditions: Homo sapiens, incubation period 48 hours
Procedure: as §1

NCI-H226 = test: XTT assay, tumor-inhibiting effect in vitro, NCI-H226; conditions: Homo sapiens, incubation period 48 hours
Procedure: as §1

SK-MEL-5 = test: XTT assay, tumor-inhibiting effect in vitro, SK-MEL-5; conditions: Homo sapiens, incubation period 48 hours
Procedure: as §1

SK-MEL-28 = test: XTT assay, tumor-inhibiting effect in vitro, SK-MEL-28; conditions: Homo sapiens, incubation period 48 hours
Procedure: as §1

## NC(=S)N/N=C1\Cc2c([nH]c3ccc(Br)cc23)-c2ccccc2N1 [KP 1428]
CCRF-CEM
  IC50: 5.47 µM
K-562
  IC50: 48.4 µM
MOLT-4
  IC50: 2.63 µM
COLO 205
  IC50: 13.3 µM
HCT-15
  IC50: 24.1 µM
HCT-116
  IC50: 26.4 µM
HT-29
  IC50: 9.46 µM
SW-620
  IC50: 22.8 µM
MCF-7
  IC50: 20.7 µM
OVCAR 3
  IC50: 2.59 µM
NCI-H460
  IC50: 14.4 µM
NCI-H226
  IC50: 30.1 µM
SK-MEL-5
  IC50: 19.4 µM
SK-MEL-28
  IC50: 18.5 µM

## Oc1ccccc1/C=N/N=C1\Cc2c([nH]c3ccc(Br)cc23)-c2ccccc2N1 [KP1437]
CCRF-CEM
  IC50: 1.66 µM
K-562
  IC50: 1.56 µM
MOLT-4
  IC50: 2.9 µM
COLO 205
  IC50: 5.25 µM
HCT-15
  IC50: 0.74 µM
HCT-116
  IC50: 2.56 µM
HT-29
  IC50: 6.61 µM
SW-620
  IC50: 3.83 µM
MCF-7
  IC50: 10.4 µM
OVCAR 3
  IC50: 6.82 µM
NCI-H460
  IC50: 9.51 µM
NCI-H226
  IC50: 7.19 µM
SK-MEL-5
  IC50: 10 µM
SK-MEL-28
  IC50: 7.98 µM
